From PubChem BioAssay (NCI)
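At the GI50, growth is halved. TGI: concentration producing complete growth inhibition.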

Key:
Assay in all cases: growth of human tumour cells (NCI), 384-well format
[1] = system: 786-0 renal
[2] = system: A498 renal
[3] = system: A549 NSCLC
[4] = system: ACHN renal
[5] = system: BT-549 breast
[6] = system: CAKI-1 renal
[7] = system: COLO 205 colon
[8] = system: DU-145 prostate
[9] = system: EKVX NSCLC
[10] = system: HCT-116 colon
[11] = system: HCT-15 colon
[12] = system: HL-60(TB) leukemia
[13] = system: HOP-62 NSCLC
[14] = system: HOP-92 NSCLC
[15] = system: HS 578T breast
[16] = system: HT29 colon
[17] = system: IGROV1 ovarian
[18] = system: K-562 leukemia
[19] = system: KM12 colon
[20] = system: M14 melanoma
[21] = system: MALME-3M melanoma
[22] = system: MCF7 breast
[23] = system: MDA-MB-231 breast
[24] = system: MDA-MB-435 melanoma
[25] = system: MDA-MB-468 breast
[26] = system: MOLT-4 leukemia
[27] = system: NCI-H226 lung
[28] = system: NCI-H23 lung
[29] = system: NCI-H322M lung
[30] = system: NCI-H460 NSCLC
[31] = system: NCI-H522 lung
[32] = system: OVCAR-3 ovarian
[33] = system: OVCAR-4 ovarian
[34] = system: OVCAR-5 ovarian
[35] = system: OVCAR-8 ovarian
[36] = system: PC-3 prostate
[37] = system: RXF 393 renal
[38] = system: SF-268 CNS
[39] = system: SF-295 CNS
[40] = system: SF-539 CNS
[41] = system: SK-MEL-2 melanoma
[42] = system: SK-MEL-28 melanoma
[43] = system: SK-MEL-5 melanoma
[44] = system: SK-OV-3 ovarian
[45] = system: SN12C renal
[46] = system: SNB-19 CNS
[47] = system: SNB-75 CNS
[48] = system: SR leukemia
[49] = system: SW-620 colon
[50] = system: T-47D breast
[51] = system: TK-10 renal
[52] = system: U251 glioblastoma
[53] = system: UACC-257 melanoma
[54] = system: UACC-62 melanoma
[55] = system: UO-31 renal

Compound Cc1cc(C)c(CNC(=O)c2cc(Cl)c3c(c2C)O[C@@](C)(C2CCC(N(C)C)CC2)O3)c(=O)[nH]1 (stereo not given in full) has a GI50 [1] of 16.1 µM, a TGI [1] of 32 µM and a GI50 [2] of 20.4 µM. For the same compound, the TGI [2] was 37.1 µM, the GI50 [3] was 76.2 µM and the TGI [3] was greater than 100 µM. For the same compound, the GI50 [4] was greater than 100 µM, the TGI [4] was greater than 100 µM and the GI50 [5] was 19 µM. The TGI [5] was 45 µM, the GI50 [6] was 19.1 µM and the TGI [6] was 39.2 µM. It also gave a GI50 [7] greater than 100 µM, a TGI [7] greater than 100 µM and a GI50 [8] of 81.1 µM. For the same compound, the TGI [8] was greater than 100 µM, the GI50 [9] was 48.9 µM and the TGI [9] was greater than 100 µM. For the same compound, the GI50 [10] was 38.6 µM, the TGI [10] was greater than 100 µM and the GI50 [11] was 71.1 µM. It also gave a TGI [11] greater than 100 µM, a GI50 [12] of 15.4 µM and a TGI [12] of 37.6 µM. For the same compound, the GI50 [13] was greater than 100 µM, the TGI [13] was greater than 100 µM and the GI50 [14] was 40 µM. For the same compound, the TGI [14] was greater than 100 µM, the GI50 [15] was 13.8 µM and the TGI [15] was 32.7 µM. For the same compound, the GI50 [16] was 21.3 µM, the TGI [16] was 48.7 µM and the GI50 [17] was 51 µM. It also gave a TGI [17] greater than 100 µM, a GI50 [18] of 14.9 µM and a TGI [18] of 30.5 µM. It also gave a GI50 [19] of 59.4 µM, a TGI [19] greater than 100 µM and a GI50 [20] of 38.2 µM. The TGI [20] was greater than 100 µM, the GI50 [21] was 25.1 µM and the TGI [21] was 56.9 µM. It also gave a GI50 [22] of 44.9 µM, a TGI [22] greater than 100 µM and a GI50 [23] greater than 100 µM. The TGI [23] was greater than 100 µM, the GI50 [24] was 73.4 µM and the TGI [24] was greater than 100 µM. It also gave a GI50 [25] of 24.9 µM, a TGI [25] of 73.2 µM and a GI50 [26] of 29.2 µM. It also gave a TGI [26] of 77.5 µM, a GI50 [27] of 44.3 µM and a TGI [27] greater than 100 µM. It also gave a GI50 [28] of 46.8 µM, a TGI [28] greater than 100 µM and a GI50 [29] greater than 100 µM. It also gave a TGI [29] greater than 100 µM, a GI50 [30] of 37.2 µM and a TGI [30] greater than 100 µM. It also gave a GI50 [31] greater than 100 µM, a TGI [31] greater than 100 µM and a GI50 [32] of 72 µM. For the same compound, the TGI [32] was greater than 100 µM, the GI50 [33] was greater than 100 µM and the TGI [33] was greater than 100 µM. The GI50 [34] was greater than 100 µM, the TGI [34] was greater than 100 µM and the GI50 [35] was greater than 100 µM. The TGI [35] was greater than 100 µM, the GI50 [36] was 56.3 µM and the TGI [36] was greater than 100 µM. The GI50 [37] was 7.55 µM, the TGI [37] was 21.2 µM and the GI50 [38] was 45.4 µM. It also gave a TGI [38] greater than 100 µM, a GI50 [39] of 35.1 µM and a TGI [39] greater than 100 µM. For the same compound, the GI50 [40] was 35 µM, the TGI [40] was greater than 100 µM and the GI50 [41] was 17.4 µM. It also gave a TGI [41] of 45.6 µM, a GI50 [42] of 83 µM and a TGI [42] greater than 100 µM. For the same compound, the GI50 [43] was 17.6 µM, the TGI [43] was 37.2 µM and the GI50 [44] was greater than 100 µM. For the same compound, the TGI [44] was greater than 100 µM, the GI50 [45] was 76.6 µM and the TGI [45] was greater than 100 µM. The GI50 [46] was greater than 100 µM, the TGI [46] was greater than 100 µM and the GI50 [47] was 18.6 µM. For the same compound, the TGI [47] was 60.3 µM, the GI50 [48] was 19.8 µM and the TGI [48] was 34.1 µM. The GI50 [49] was greater than 100 µM, the TGI [49] was greater than 100 µM and the GI50 [50] was greater than 100 µM. For the same compound, the TGI [50] was greater than 100 µM, the GI50 [51] was 33.4 µM and the TGI [51] was greater than 100 µM. For the same compound, the GI50 [52] was 72.9 µM, the TGI [52] was greater than 100 µM and the GI50 [53] was 22.7 µM. It also gave a TGI [53] of 51.8 µM, a GI50 [54] of 32.6 µM and a TGI [54] greater than 100 µM. It also gave a GI50 [55] of 63.1 µM and a TGI [55] greater than 100 µM.
